In the NIST ThermoML archive (doi:10.1016/j.jct.2017.08.004):

Assay: molar heat capacity at constant pressure
Details: 101.33 kPa

OC[C@@H](O)[C@@H](O)CO [meso-1,2,3,4-butanetetrol]
molar heat capacity at constant pressure [J/K/mol]
Details	Small sample (50 mg) DSC	relaxation calorimetry
264.15 K, Crystal	146.16	–
265.15 K, Crystal	146.7	–
266.15 K, Crystal	147.21	–
267.15 K, Crystal	147.61	–
268.15 K, Crystal	148.1	–
269.15 K, Crystal	148.57	–
270 K, Crystal	–	150.4
270.15 K, Crystal	149.15	–
271.15 K, Crystal	149.59	–
272.15 K, Crystal	150.19	–
272.18 K, Crystal	–	151.4
273.15 K, Crystal	150.91	152
274.15 K, Crystal	151.33	–
275.15 K, Crystal	151.84	–
276.15 K, Crystal	152.44	–
277.15 K, Crystal	152.94	–
278.15 K, Crystal	153.58	–
279.15 K, Crystal	154.21	–
280 K, Crystal	–	155.49
280.15 K, Crystal	154.62	–
281.15 K, Crystal	155.17	–
282.15 K, Crystal	155.77	–
282.18 K, Crystal	–	157.05
283.15 K, Crystal	156.24	–
284.15 K, Crystal	156.55	–
285.15 K, Crystal	157.21	–
286.15 K, Crystal	157.62	–
287.15 K, Crystal	158.1	–
288.15 K, Crystal	158.65	–
289.15 K, Crystal	159.25	–
290 K, Crystal	–	160.61
290.15 K, Crystal	159.93	–
291.15 K, Crystal	160.48	–
292.15 K, Crystal	161.05	–
292.3 K, Crystal	–	161.64
293.15 K, Crystal	161.72	–
294.15 K, Crystal	162.21	–
295.15 K, Crystal	162.81	–
296.15 K, Crystal	163.64	–
297.15 K, Crystal	164.09	–
298.15 K, Crystal	164.59	164.8
299.15 K, Crystal	165.2	–
300 K, Crystal	–	165.76
300.15 K, Crystal	165.82	–
301.15 K, Crystal	166.37	–
302.15 K, Crystal	166.97	–
302.36 K, Crystal	–	167.01
303.15 K, Crystal	167.71	–
304.15 K, Crystal	168.28	–
305 K, Crystal	169.01	–
305.15 K, Crystal	169.01	–
306.15 K, Crystal	169.71	–
307.15 K, Crystal	170.39	–
308.15 K, Crystal	171.17	–
309.15 K, Crystal	171.87	–
310 K, Crystal	172.33	–
310.15 K, Crystal	172.47	–
311.15 K, Crystal	173.14	–
312.15 K, Crystal	173.77	–
313.15 K, Crystal	174.6	–
314.15 K, Crystal	175.09	–
315 K, Crystal	175.5	–
315.15 K, Crystal	175.58	–
316.15 K, Crystal	176.2	–
317.15 K, Crystal	176.88	–
318.15 K, Crystal	177.32	–
319.15 K, Crystal	177.89	–
320 K, Crystal	178.54	–
320.15 K, Crystal	178.54	–
321.15 K, Crystal	179.14	–
322.15 K, Crystal	179.7	–
323.15 K, Crystal	180.24	–
324.15 K, Crystal	180.85	–
325 K, Crystal	181.48	–
325.15 K, Crystal	181.48	–
326.15 K, Crystal	181.97	–
327.15 K, Crystal	182.72	–
328.15 K, Crystal	183.34	–
329.15 K, Crystal	183.85	–
330 K, Crystal	184.34	–
330.15 K, Crystal	184.59	–
331.15 K, Crystal	185.18	–
332.15 K, Crystal	185.74	–
333.15 K, Crystal	186.31	–
334.15 K, Crystal	186.85	–
335 K, Crystal	187.15	–
335.15 K, Crystal	187.33	–
336.15 K, Crystal	187.85	–
337.15 K, Crystal	188.31	–
338.15 K, Crystal	188.9	–
339.15 K, Crystal	189.49	–
340 K, Crystal	189.91	–
340.15 K, Crystal	189.94	–
341.15 K, Crystal	190.43	–
342.15 K, Crystal	191.01	–
343.15 K, Crystal	191.56	–
344.15 K, Crystal	192.16	–
345 K, Crystal	192.66	–
345.15 K, Crystal	192.67	–
346.15 K, Crystal	193.32	–
347.15 K, Crystal	193.86	–
348.15 K, Crystal	194.17	–
349.15 K, Crystal	194.83	–
350 K, Crystal	195.43	–
350.15 K, Crystal	195.3	–
351.15 K, Crystal	195.72	–
352.15 K, Crystal	196.34	–
353.15 K, Crystal	197.73	–
354.15 K, Crystal	198.08	–
355 K, Crystal	198.22	–
355.15 K, Crystal	198.55	–
356.15 K, Crystal	199.02	–
357.15 K, Crystal	199.53	–
358.15 K, Crystal	200.16	–
359.15 K, Crystal	200.7	–
360 K, Crystal	201.07	–
360.15 K, Crystal	201.23	–
361.15 K, Crystal	201.82	–
362.15 K, Crystal	202.33	–
363.15 K, Crystal	202.72	–
364.15 K, Crystal	203.4	–
365 K, Crystal	203.99	–
365.15 K, Crystal	203.96	–
366.15 K, Crystal	204.56	–
367.15 K, Crystal	205.27	–
368.15 K, Crystal	205.84	–
369.15 K, Crystal	206.45	–
370 K, Crystal	207.02	–
370.15 K, Crystal	207.1	–
371.15 K, Crystal	207.59	–
372.15 K, Crystal	208.24	–
373.15 K, Crystal	208.9	–
374.15 K, Crystal	209.47	–
375 K, Crystal	210.16	–
375.15 K, Crystal	210.03	–
412.05 K, Liquid	355.49	–
412.15 K, Liquid	355.53	–
412.25 K, Liquid	355.65	–
412.35 K, Liquid	355.53	–
412.45 K, Liquid	355.34	–
412.55 K, Liquid	355.36	–
412.65 K, Liquid	355.43	–
412.75 K, Liquid	355.39	–
412.85 K, Liquid	355.48	–
412.95 K, Liquid	355.36	–
413.05 K, Liquid	355.34	–
413.15 K, Liquid	355.22	–
414.15 K, Liquid	354.92	–
415 K, Liquid	354.91	–
415.15 K, Liquid	354.76	–
416.15 K, Liquid	354.79	–
417.15 K, Liquid	354.7	–
418.15 K, Liquid	354.67	–
419.15 K, Liquid	354.7	–
420 K, Liquid	354.96	–
420.15 K, Liquid	354.81	–
421.15 K, Liquid	354.98	–
422.15 K, Liquid	354.99	–
423.15 K, Liquid	354.99	–
424.15 K, Liquid	354.94	–
425 K, Liquid	355.01	–
425.15 K, Liquid	354.94	–
426.15 K, Liquid	354.95	–
427.15 K, Liquid	355.23	–
428.15 K, Liquid	355.21	–
429.15 K, Liquid	355.15	–
430 K, Liquid	355.06	–
430.15 K, Liquid	355.18	–
431.15 K, Liquid	355.17	–
432.15 K, Liquid	355.17	–
433.15 K, Liquid	355	–
434.15 K, Liquid	354.85	–
435 K, Liquid	355.11	–
435.15 K, Liquid	355.19	–
